Earlier results in patent publication US6806274B1, “Quinazoline derivatives” (AstraZeneca UK Limited, priority 1999, dated 2004).

Molecular target: EGF RTK (Homo sapiens, UniProt P00533)
Details: Bioorganic & Medicinal Chemistry Letters, 1997, 7, 2723-2728

EGF RTK, sequence (P00533 25-1210): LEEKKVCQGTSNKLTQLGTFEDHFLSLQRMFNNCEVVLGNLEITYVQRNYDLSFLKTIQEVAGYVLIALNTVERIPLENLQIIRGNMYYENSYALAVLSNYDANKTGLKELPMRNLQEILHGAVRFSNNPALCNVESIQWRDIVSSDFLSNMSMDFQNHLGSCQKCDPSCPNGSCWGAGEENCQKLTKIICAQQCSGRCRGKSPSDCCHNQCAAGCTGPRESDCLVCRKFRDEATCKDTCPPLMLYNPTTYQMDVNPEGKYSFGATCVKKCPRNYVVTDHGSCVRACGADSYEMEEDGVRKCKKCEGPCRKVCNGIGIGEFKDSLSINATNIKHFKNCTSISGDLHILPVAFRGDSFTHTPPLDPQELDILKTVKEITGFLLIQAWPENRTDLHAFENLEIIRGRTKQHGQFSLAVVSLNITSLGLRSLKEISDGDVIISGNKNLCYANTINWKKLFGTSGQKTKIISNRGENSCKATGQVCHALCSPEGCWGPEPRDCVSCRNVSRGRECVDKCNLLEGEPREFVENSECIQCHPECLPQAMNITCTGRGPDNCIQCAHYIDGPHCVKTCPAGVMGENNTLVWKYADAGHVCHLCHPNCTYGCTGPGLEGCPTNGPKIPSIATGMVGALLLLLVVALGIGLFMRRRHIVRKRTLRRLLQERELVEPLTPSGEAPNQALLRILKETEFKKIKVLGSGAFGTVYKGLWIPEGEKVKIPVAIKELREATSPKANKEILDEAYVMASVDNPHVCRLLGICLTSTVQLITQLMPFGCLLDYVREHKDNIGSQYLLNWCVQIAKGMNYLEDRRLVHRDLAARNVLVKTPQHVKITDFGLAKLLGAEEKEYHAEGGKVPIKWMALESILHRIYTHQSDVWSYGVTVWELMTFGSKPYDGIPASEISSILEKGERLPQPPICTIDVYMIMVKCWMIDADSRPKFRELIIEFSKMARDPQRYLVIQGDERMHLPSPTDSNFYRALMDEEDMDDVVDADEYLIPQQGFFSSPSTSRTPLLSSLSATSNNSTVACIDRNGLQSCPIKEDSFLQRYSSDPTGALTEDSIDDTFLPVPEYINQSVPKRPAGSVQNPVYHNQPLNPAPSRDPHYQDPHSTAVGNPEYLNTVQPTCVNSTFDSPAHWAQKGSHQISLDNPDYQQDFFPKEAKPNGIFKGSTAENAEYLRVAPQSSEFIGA

activity as an EGF RTK inhibitor: inactive
SMILES: COc1cc2ncnc(NC(=O)Nc3ccccc3)c2cc1OC [1-(6,7-dimethoxyquinazolin-4-yl)-3-phenylurea]
